Laboratory results: article PMC8565515, “Dasabuvir Inhibits Human Norovirus Infection in Human Intestinal Enteroids” (mSphere, 2021)
Where a name gives a salt, the structure may show the parent alone. Read-outs that look alike come from different tables or passages of the source.

How the values were obtained:
GII.4 HuNoV = GII.4 HuNoV infection of HIE monolayers, viral genome equivalents by RT-qPCR; format: cell-based, human norovirus; conditions: for activity at 10 µM: Norovirus, 24 h, read-out: (%) HuNoV GEs
[1] = compound 10 μM, n = 1, J2 HIE monolayers, GII.4 HuNoV, 24 hpi, normalized to DMSO control

Compound | activity at 10 µM (GII.4 HuNoV; [1]) [%] | (%) Cytotoxicity (J2 HIE monolayers; human, 24 h, 10 μM) [%] | further results
COC(=O)C1=C(C)NC(c2ncc(F)cc2F)=NC1c1ccc(F)cc1Cl (racemic) [Bay 41-4109 racemate] |  |  | (%) HuNoV GEs (GII.4 HuNoV; [1]): 39.26%
N[C@@H](CCC(=O)N[C@@H](CS[C@@H]1CCn2ccc(CO)c21)C(=O)NCC(=O)O)C(=O)O [6466-0862] |  |  | (%) HuNoV GEs (GII.4 HuNoV; [1]): 155.85%; (%) Cytotoxicity (J2 HIE monolayers): -0.22%
COC(=O)C(C)(N)C(C)(C)C (stereo not shown) [6526-0824] |  |  | (%) HuNoV GEs (GII.4 HuNoV; [1]): 131.97%; (%) Cytotoxicity (J2 HIE monolayers): 2.41%
O=C(O[C@@H]1Cc2c(O)cc(O)cc2O[C@@H]1c1cc(O)c(O)c(O)c1)c1cc(O)c(O)c(O)c1 [(-)-Epigallocatechin Gallate] | 198 | 2.41 | 
Nc1nc(NC2CC2)c2ncn([C@H]3C=C[C@@H](CO)C3)c2n1 [Abacavir] | 64.9 | 0.27 | 
Nc1nc2c(ncn2COCCO)c(=O)[nH]1 [Aciclovir] | 54.4 | 0.59 | 
CC(C)(C)C(=O)OCOP(=O)(COCCn1cnc2c(N)ncnc21)OCOC(=O)C(C)(C)C [Adefovir dipivoxil] |  | 3.59 | activity at 10 µM (GII.4 HuNoV): 67.1%
O=C1c2cccc(O)c2C(=O)c2c(O)cc(CO)cc21 [Aloe-emodin] | 253 | 0.59 | 
NC12CC3CC(CC(C3)C1)C2 [Amantadine hydrochloride] | 232 |  | 
Cc1cccc(C)c1N(CC(=O)Nc1ccc(-c2ncon2)cc1)C(=O)C1CCS(=O)(=O)CC1 [Amenamevir] | 61.7 | 0.09 | 
CC1(C)S[C@@H]2[C@H](NC(=O)[C@H](N)c3ccccc3)C(=O)N2[C@H]1C(=O)O [Ampicillin Trihydrate] | 100 | 1.14 | 
CC(C)CN(C[C@@H](O)[C@H](Cc1ccccc1)NC(=O)O[C@H]1CCOC1)S(=O)(=O)c1ccc(N)cc1 [Amprenavir] | 15.9 | -0.21 | 
C[C@@H]1CC[C@H]2[C@@H](C)C(=O)O[C@@H]3O[C@@]4(C)CC[C@@H]1[C@]32OO4 [Artemisinin] | 51.7 | 1.63 | 
COC(=O)N[C@H](C(=O)N[C@@H](Cc1ccccc1)[C@@H](O)CN(Cc1ccc(-c2ccccn2)cc1)NC(=O)[C@@H](NC(=O)OC)C(C)(C)C)C(C)(C)C [Atazanavir] | 66.4 | 0.72 | 
CC1(C)S[C@@H]2[C@H](NC(=O)[C@H](NC(=O)N3CCNC3=O)c3ccccc3)C(=O)N2[C@H]1C(=O)O [Azlocillin sodium] | 28 |  | 
O=C(O)[C@H]1O[C@@H](Oc2cc3oc(-c4ccccc4)cc(=O)c3c(O)c2O)[C@H](O)[C@@H](O)[C@@H]1O [Baicalin] | 97.7 |  | 
OC[C@H]1O[C@@H]2O[C@H]3[C@H](O)[C@@H](O)[C@@H](O[C@H]4[C@H](O)[C@@H](O)[C@@H](O[C@H]5[C@H](O)[C@@H](O)[C@@H](O[C@H]6[C@H](O)[C@@H](O)[C@@H](O[C@H]7[C@H](O)[C@@H](O)[C@@H](O[C@H]8[C@H](O)[C@@H](O)[C@@H](O[C@H]1[C@H](O)[C@H]2O)O[C@@H]8CO)O[C@@H]7CO)O[C@@H]6CO)O[C@@H]5CO)O[C@@H]4CO)O[C@@H]3CO [Beta-Cyclodextrin] | 70.6 | -0.91 | 
C=C(C)[C@@H]1CC[C@]2(CO)CC[C@]3(C)[C@H](CC[C@@H]4[C@@]5(C)CC[C@H](O)C(C)(C)[C@@H]5CC[C@]43C)[C@@H]12 [Betulin] | 69.8 |  | (%) Cytotoxicity (J2 HIE monolayers; human): 4.24%
C=C(C)[C@@H]1CC[C@]2(C(=O)O)CC[C@]3(C)[C@H](CC[C@@H]4[C@@]5(C)CC[C@H](O)C(C)(C)[C@@H]5CC[C@]43C)[C@@H]12 [Betulinic acid] | 16.4 |  | 
CCOC(=O)CCc1c(C)nc2c(c(C)nn2-c2ccc(C)cc2)c1C [C430-0518] |  |  | (%) HuNoV GEs (GII.4 HuNoV; [1]): 170.30%; (%) Cytotoxicity (J2 HIE monolayers): -1.01%
CCc1nn(CC(=O)NCCCN(CC)CC)c(=O)c2cc3sc(C)cc3n12 [C795-0720] |  |  | (%) HuNoV GEs (GII.4 HuNoV; [1]): 100.75%; (%) Cytotoxicity (J2 HIE monolayers): 0.72%
OC[C@H]1O[C@@H](O[C@@H]2OC=C[C@H]3[C@H](O)[C@@H]4O[C@]4(CO)[C@@H]23)[C@H](O)[C@@H](O)[C@@H]1O [Catalpol] | 104 | 3.07 | 
C=CC1=C(C(=O)O)N2C(=O)[C@@H](NC(=O)/C(=N\O)c3csc(N)n3)[C@H]2SC1 [Cefdinir] | 118 | 2.33 | 
CO/N=C(\C(=O)N[C@@H]1C(=O)N2C(C(=O)O)=C(C[N+]3(C)CCCC3)CS[C@H]12)c1csc(N)n1 [Cefepime Dihydrochloride Monohydrate] | 116 | 3.73 | 
C=CC1=C(C(=O)O)N2C(=O)[C@@H](NC(=O)/C(=N\OCC(=O)O)c3csc(N)n3)[C@H]2SC1 [Cefixime] | 41.9 | 2.28 | 
CO/N=C(\C(=O)N[C@@H]1C(=O)N2C(C(=O)O)=C(COC(C)=O)CS[C@H]12)c1csc(N)n1 [Cefotaxime sodium] | 10.1 | 0.51 | 
Cc1cc(O)cc(C)c1Cl [Chloroxylenol] | 65.9 |  | 
Clc1ccc(Cn2c(CN3CCCC3)nc3ccccc32)cc1 [Clemizole] | 85.7 | 3.11 | 

Compound | activity at 10 µM (GII.4 HuNoV; [1]) [%] | (%) Cytotoxicity (J2 HIE monolayers; human, 24 h, 10 μM) [%] | further results
Cc1cn([C@H]2O[C@@H](CO)[C@H](O)[C@H]2F)c(=O)[nH]c1=O [Clevudine] | 33.8 | -0.09 | 
Clc1ccccc1C(c1ccccc1)(c1ccccc1)n1ccnc1 [Clotrimazole] | 159 | 0.51 | 
CN(C)c1ccc(C(=C2C=CC(=[N+](C)C)C=C2)c2ccc(N(C)C)cc2)cc1 [Crystal Violet] | 14.5 | 55.49 | 
Nc1ccn([C@@H]2O[C@H](CO)[C@@H](O)[C@@H]2O)c(=O)n1 [Cytarabine] | 31.3 | -0.77 | 
COC(=O)N[C@H](C(=O)N1CCC[C@H]1c1nc(-c2ccc(-c3ccc(-c4c[nH]c([C@@H]5CCCN5C(=O)[C@@H](NC(=O)OC)C(C)C)n4)cc3)cc2)c[nH]1)C(C)C [Daclatasvir dihydrochloride] | 178 | 5.28 | 
CC(C)CN(C[C@@H](O)[C@H](Cc1ccccc1)NC(=O)O[C@H]1CO[C@H]2OCC[C@H]21)S(=O)(=O)c1ccc(N)cc1.CCO [Darunavir Ethanolate] |  |  | (%) HuNoV GEs (GII.4 HuNoV; [1]): 147.86%
CC(C)CN(C[C@@H](O)[C@H](Cc1ccccc1)NC(=O)O[C@H]1CO[C@H]2OCC[C@H]21)S(=O)(=O)c1ccc(N)cc1 [Darunavir] | 91.8 |  | 
C=C1CC[C@@H]2[C@](C)(COC(=O)CCC(=O)[O-])[C@H](OC(=O)CCC(=O)O)CC[C@@]2(C)[C@@H]1/C=C/C1=CCOC1=O.[K+] [Dehydroandrographolide Succinate Potasium Salt] |  |  | (%) HuNoV GEs (GII.4 HuNoV; [1]): 40.48%
C[C@@H]1CCO[C@H]2Cn3cc(C(=O)NCc4ccc(F)cc4F)c(=O)c(O)c3C(=O)N12 [Dolutegravir] | 8.52 |  | 
Cn1c(Cn2ccc(C(F)(F)F)c(Oc3cc(Cl)cc(C#N)c3)c2=O)n[nH]c1=O [Doravirine] | 32.7 |  | 
C[C@H](NC(=O)C(=O)Nc1ccccc1C(C)(C)C)C(=O)N[C@@H](CC(=O)O)C(=O)COc1c(F)c(F)cc(F)c1F [Emricasan] | 198 |  | 
Cc1nn(CCC(=O)Nc2cccc(C#N)c2)c(C)c1S(=O)(=O)N1CCCCC1 [G402-0939] |  |  | (%) HuNoV GEs (GII.4 HuNoV; [1]): 147.17%
Cc1cccc(N2CCN(S(=O)(=O)c3ccc4c(c3)CCCN4C(=O)C3CCC3)CC2)c1C [G855-2047] |  |  | (%) HuNoV GEs (GII.4 HuNoV; [1]): 133.69%
O=C(Nc1nc2ccc3scnc3c2s1)c1ccc2ccccc2c1 [KIN1148] |  |  | (%) HuNoV GEs (GII.4 HuNoV; [1]): 58.10%
NC(=O)N1CCC(CC(=O)N2CCC([C@H]3c4ncc(Br)cc4CCc4cc(Cl)cc(Br)c43)CC2)CC1 [Lonafarnib] | 62.3 |  | 
Cc1c(-c2cnccn2)ssc1=S [Oltipraz] | 7.76 |  | 
C[C@@]1(F)[C@H](O)[C@@H](CO)O[C@H]1n1ccc(=O)[nH]c1=O [PSI6206] |  |  | (%) HuNoV GEs (GII.4 HuNoV; [1]): 143.70%
NC(=O)c1ncn([C@@H]2O[C@H](CO)[C@@H](O)[C@H]2O)n1 [Ribavirin] | 64.5 |  | 
O=C(Nc1ccccc1)c1ccccc1O [Salicylanilide] | 85.5 |  | 
S=C(NCCc1ccccn1)Nc1ccc(Br)cn1 [Trovirdine] |  |  | activity at 10 µM (GII.4 HuNoV): 48.3%
CC(=O)Oc1c(C)c(C)c2c(c1C)CCC(C)(CCC[C@H](C)CCC[C@H](C)CCCC(C)C)O2 (stereo partly shown) [Vitamin E Acetate] | 55.8 |  | 
Cc1ccc(NC(=O)C(=O)NC2CC(C)(C)NC(C)(C)C2)cc1 [YYA-021] |  |  | (%) HuNoV GEs (GII.4 HuNoV; [1]): 54.17%
Cc1cn([C@H]2C[C@H](N=[N+]=[N-])[C@@H](CO)O2)c(=O)[nH]c1=O [Zidovudine] | 57.6 |  | 
Dermofongin |  |  | (%) HuNoV GEs (GII.4 HuNoV; [1]): 46.93%
Dicurone |  |  | (%) HuNoV GEs (GII.4 HuNoV; [1]): 90.75%
HZ-1157 |  |  | (%) HuNoV GEs (GII.4 HuNoV; [1]): 36.74%
Maraviroc |  |  | (%) HuNoV GEs (GII.4 HuNoV; [1]): 52.60%
